{
  "source": "ChEMBL document CHEMBL4373717",
  "about": "“Coumarin-containing hybrids and their anticancer activities” (Eur J Med Chem, 2019)",
  "key": {"HeLa [1]": {"test_system": "HeLa", "assay": "Cytotoxicity against human HeLa cells assessed as reduction in cell viability after 72 hrs by MTT assay", "assay_type": "functional, cell-based"}, "Caco-2": {"test_system": "Caco-2", "assay": "Cytotoxicity against human Caco2 cells assessed as reduction in cell viability after 72 hrs by MTT assay", "assay_type": "functional, cell-based", "conditions": "Caco-2, 72 h"}, "K562": {"test_system": "K562", "assay": "Cytotoxicity against human K562 cells assessed as reduction in cell viability after 72 hrs by MTT assay", "assay_type": "functional, cell-based", "conditions": "K562, 72 h"}, "MDA-MB-231": {"test_system": "MDA-MB-231", "assay": "Cytotoxicity against human MDA-MB-231 cells assessed as reduction in cell viability after 24 hrs by MTT assay", "assay_type": "functional, cell-based", "conditions": "Homo sapiens, MDA-MB-231, 24 h"}, "A549 [2]": {"test_system": "A549", "assay": "Cytotoxicity against human A549 cells assessed as reduction in cell viability after 24 hrs by MTT assay", "assay_type": "functional, cell-based", "conditions": "A549, 24 h"}, "L02": {"test_system": "L02", "assay": "Cytotoxicity against human L02 cells assessed as reduction in cell viability after 24 hrs by MTT assay", "assay_type": "cell-based", "conditions": "L02, 24 h"}, "HEK-293T": {"test_system": "HEK-293T", "assay": "Cytotoxicity against HEK293T cells assessed as reduction in cell viability after 24 hrs by MTT assay", "assay_type": "cell-based", "conditions": "Homo sapiens"}, "HeLa [3]": {"test_system": "HeLa", "assay": "Cytotoxicity against human HeLa cells assessed as reduction in cell viability after 24 hrs by MTT assay", "assay_type": "functional, cell-based"}, "MCF7 [4]": {"test_system": "MCF7", "assay": "Cytotoxicity against human MCF7 cells assessed as reduction in cell viability after 24 hrs by MTT assay", "assay_type": "functional, cell-based", "conditions": "MCF7, 24 h"}, "HepG2": {"test_system": "HepG2", "assay": "Anticancer activity against human HepG2 cells by CCK8 assay", "assay_type": "functional, cell-based"}, "Hep 3B2": {"test_system": "Hep 3B2", "assay": "Anticancer activity against human Hep3B cells by CCK8 assay", "assay_type": "functional, cell-based"}, "A2780": {"test_system": "A2780", "assay": "Anticancer activity against human A2780 cells by CCK8 assay", "assay_type": "functional, cell-based"}, "OVCAR-3": {"test_system": "OVCAR-3", "assay": "Anticancer activity against human OVCAR3 cells by CCK8 assay", "assay_type": "functional, cell-based"}, "A549 [5]": {"test_system": "A549", "assay": "Cytotoxicity against human A549 cells assessed as reduction in cell viability by MTT assay", "assay_type": "functional, cell-based"}, "MCF7 [6]": {"test_system": "MCF7", "assay": "Cytotoxicity against human MCF7 cells assessed as reduction in cell viability by MTT assay", "assay_type": "functional, cell-based", "conditions": "Homo sapiens, MCF7"}, "[7]": {"target": "Vascular endothelial growth factor receptor 2 (Homo sapiens, UniProt P35968)", "sequence (P35968 whole entry)": "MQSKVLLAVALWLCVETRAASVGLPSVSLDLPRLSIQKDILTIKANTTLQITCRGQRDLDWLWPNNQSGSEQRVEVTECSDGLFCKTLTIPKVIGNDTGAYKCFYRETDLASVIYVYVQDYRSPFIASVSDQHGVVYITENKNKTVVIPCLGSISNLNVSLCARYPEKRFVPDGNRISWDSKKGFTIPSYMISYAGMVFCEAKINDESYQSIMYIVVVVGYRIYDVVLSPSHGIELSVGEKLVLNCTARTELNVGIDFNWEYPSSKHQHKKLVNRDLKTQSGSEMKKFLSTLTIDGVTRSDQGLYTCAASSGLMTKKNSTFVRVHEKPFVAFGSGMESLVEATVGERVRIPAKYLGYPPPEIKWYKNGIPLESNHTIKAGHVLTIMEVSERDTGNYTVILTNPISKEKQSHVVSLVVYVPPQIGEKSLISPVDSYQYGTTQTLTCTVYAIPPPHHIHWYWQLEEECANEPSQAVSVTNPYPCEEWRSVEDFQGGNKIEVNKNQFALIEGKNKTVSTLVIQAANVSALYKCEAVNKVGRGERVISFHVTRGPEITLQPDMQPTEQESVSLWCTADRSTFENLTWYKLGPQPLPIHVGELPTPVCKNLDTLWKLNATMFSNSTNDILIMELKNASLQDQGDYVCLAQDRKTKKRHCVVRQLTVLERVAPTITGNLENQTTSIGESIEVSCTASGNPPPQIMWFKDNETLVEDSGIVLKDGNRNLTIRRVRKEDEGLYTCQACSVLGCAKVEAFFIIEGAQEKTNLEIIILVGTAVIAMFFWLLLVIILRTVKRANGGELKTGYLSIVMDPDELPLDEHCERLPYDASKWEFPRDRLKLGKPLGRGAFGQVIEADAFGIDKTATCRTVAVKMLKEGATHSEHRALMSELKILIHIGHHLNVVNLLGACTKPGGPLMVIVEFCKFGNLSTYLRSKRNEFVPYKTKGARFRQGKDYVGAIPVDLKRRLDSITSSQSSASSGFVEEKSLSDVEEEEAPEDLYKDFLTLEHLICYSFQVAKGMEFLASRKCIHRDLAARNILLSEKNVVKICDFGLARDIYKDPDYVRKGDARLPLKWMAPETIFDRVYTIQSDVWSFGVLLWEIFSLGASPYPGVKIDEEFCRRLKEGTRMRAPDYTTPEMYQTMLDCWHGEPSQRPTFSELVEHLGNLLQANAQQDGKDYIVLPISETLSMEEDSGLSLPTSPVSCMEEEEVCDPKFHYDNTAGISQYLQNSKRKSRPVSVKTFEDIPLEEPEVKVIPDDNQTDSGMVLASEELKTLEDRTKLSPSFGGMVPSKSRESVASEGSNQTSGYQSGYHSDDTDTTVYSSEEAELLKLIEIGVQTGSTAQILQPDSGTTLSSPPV", "assay": "Inhibition of VEGFR2 (unknown origin)"}, "DLD-1": {"test_system": "DLD-1", "assay": "Cytotoxicity against human DLD1 cells assessed as reduction in cell viability", "assay_type": "functional, cell-based"}, "MCF7 [8]": {"test_system": "MCF7", "assay": "Cytotoxicity against human MCF7 cells assessed as reduction in cell viability", "assay_type": "functional, cell-based"}, "MCF7 [9]": {"test_system": "MCF7", "assay": "Potency index, ratio of methotrexate IC50 to compound IC50 for cytotoxicity against human MCF7 cells assessed as reduction in cell viability", "assay_type": "functional"}, "[10]": {"assay": "Toxicity in mouse assessed as mouse survival (reference value: 14.5 days)", "conditions": "in vivo, 348 h"}, "COS-7": {"test_system": "COS-7", "assay": "Cytotoxicity against African green monkey COS7 cells assessed as reduction in cell viability by MTT assay", "assay_type": "functional, cell-based", "conditions": "Chlorocebus aethiops"}, "HeLa [11]": {"test_system": "HeLa", "assay": "Cytotoxicity against human HeLa cells assessed as reduction in cell viability by MTT assay", "assay_type": "functional, cell-based"}},
  "data": [
    {"smiles": "O=c1cc(Cn2cc(-c3ccccc3)nn2)c2cc(O)c(O)cc2o1", "values": [
      {"measurement": "IC50", "setting": "HeLa [1]", "result": "9.7 to 81.9", "unit": "µM"},
      {"measurement": "IC50", "setting": "Caco-2", "result": "9.7 to 81.9", "unit": "µM"},
      {"measurement": "IC50", "setting": "K562", "result": "9.7 to 81.9", "unit": "µM"}
    ]},
    {"smiles": "COc1cccc(-c2cn(Cc3cc(=O)oc4cc(O)c(O)cc34)nn2)c1", "values": [
      {"measurement": "IC50", "setting": "HeLa [1]", "result": "9.7 to 81.9", "unit": "µM"},
      {"measurement": "IC50", "setting": "Caco-2", "result": "9.7 to 81.9", "unit": "µM"},
      {"measurement": "IC50", "setting": "K562", "result": "9.7 to 81.9", "unit": "µM"}
    ]},
    {"smiles": "CC(C)=CC[C@@H](OCc1ccc(C(=O)/N=C/c2c(Cl)c3ccccc3oc2=O)cc1)C1=CC(=O)c2c(O)ccc(O)c2C1=O", "values": [
      {"measurement": "IC50", "setting": "MDA-MB-231", "result": "3.25 to 10.6", "unit": "µM"},
      {"measurement": "IC50", "setting": "A549 [2]", "result": "3.25 to 10.6", "unit": "µM"},
      {"measurement": "IC50", "setting": "L02", "result": "3.25 to 10.6", "unit": "µM"},
      {"measurement": "IC50", "setting": "HEK-293T", "result": "3.25 to 10.6", "unit": "µM"},
      {"measurement": "IC50", "setting": "HeLa [3]", "result": "3.25 to 10.6", "unit": "µM"},
      {"measurement": "IC50", "setting": "MCF7 [4]", "result": "3.25 to 10.6", "unit": "µM"}
    ]},
    {"smiles": "CCN(CC)c1ccc2cc(C(=O)NCCNC(=O)CN3CCN(CCC[C@H]4O[C@@H]5O[C@@]6(C)CC[C@H]7[C@H](C)CC[C@@H]([C@H]4C)[C@@]57OO6)CC3)c(=O)oc2c1", "values": [
      {"measurement": "IC50", "setting": "HepG2", "result": "2.33 to 23.7", "unit": "µM"},
      {"measurement": "IC50", "setting": "Hep 3B2", "result": "2.33 to 23.7", "unit": "µM"},
      {"measurement": "IC50", "setting": "A2780", "result": "2.33 to 23.7", "unit": "µM"},
      {"measurement": "IC50", "setting": "OVCAR-3", "result": "2.33 to 23.7", "unit": "µM"}
    ]},
    {"smiles": "Cc1cc(=O)oc2cc(NC(=O)CNCc3cccnc3)ccc12", "values": [
      {"measurement": "IC50", "setting": "A549 [5]", "result": "69.1 to 378", "unit": "µM"},
      {"measurement": "IC50", "setting": "MCF7 [6]", "result": "69.1 to 378", "unit": "µM"}
    ]},
    {"smiles": "CN(C)c1ccc(C2CC(c3c(O)c4ccccc4oc3=O)=NN2c2nc(-c3ccccc3)c(/N=N/c3ccc(Cl)cc3)s2)cc1", "note": "(configuration not stated)", "values": [
      {"measurement": "IC50", "setting": "[7]", "result": 5.41, "unit": "µM"},
      {"measurement": "IC50", "setting": "DLD-1", "result": "114 to 129", "unit": "µM"},
      {"measurement": "IC50", "setting": "MCF7 [8]", "result": "5.41 to 6.56", "unit": "µM"}
    ]},
    {"smiles": "CCN(C)S(=O)(=O)c1ccc(/C(C)=N/NC(=O)c2cc(=O)oc3ccccc23)cc1", "values": [
      {"measurement": "Ratio IC50", "setting": "MCF7 [9]", "result": 10.7},
      {"measurement": "IC50", "setting": "MCF7 [6]", "result": 2.53, "unit": "µM"}
    ]},
    {"smiles": "O=c1oc2ccccc2cc1-c1csc(N/N=C/c2cc([N+](=O)[O-])ccc2Cl)n1", "values": [
      {"measurement": "Survival", "setting": "[10]", "result": 39.3, "unit": "days"},
      {"measurement": "IC50", "setting": "COS-7", "result": "1.29 to 1.96", "unit": "µM"},
      {"measurement": "IC50", "setting": "HeLa [11]", "result": "1.29 to 1.96", "unit": "µM"},
      {"measurement": "IC50", "setting": "MCF7 [8]", "result": "1.29 to 1.96", "unit": "µM"}
    ]}
  ]
}
